Measurements from patent US4742049A, “Semisynthetic erythromycin antibiotics” (Abbott Laboratories, priority 1986, dated 1988).
≈ marks a conversion by molar mass, not a printed value. Like-named read-outs stand apart in the source and are kept apart here.

Legend:
Providencia stuartii = test: antimicrobial spectrum, agar dilution MIC; type: cell-based; settings: strain CMX 640, BHI agar, 20-24 hours
Method in brief: (§1)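 Twelve plates of Brain Heart Infusion agar hold successive aqueous dilutions of compound; each is inoculated by Steers replicator with 1:100 culture dilutions (1:10 for slow-growing streptococci) and incubated at 35°-37° C. for 20-24 hours. MIC is the lowest concentration giving no growth, slight haze or sparse colonies versus growth control.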

Pseudomonas aeruginosa = test: antimicrobial spectrum, agar dilution MIC; type: cell-based; settings: Pseudomonas aeruginosa, BHI agar, 20-24 hours
Method in brief: as §1

Staph. aureus = test: antimicrobial spectrum, agar dilution MIC; type: cell-based; settings: Staphylococcus aureus, BHI agar, 20-24 hours
Method in brief: as §1

Staph. epidermidis = test: antimicrobial spectrum, agar dilution MIC; type: cell-based; settings: Staphylococcus epidermidis, BHI agar, 20-24 hours
Method in brief: as §1

Strep. agalactiae = test: antimicrobial spectrum, agar dilution MIC; type: cell-based; settings: Streptococcus agalactiae, BHI agar, 20-24 hours
Method in brief: as §1

Strep. bovis = test: antimicrobial spectrum, agar dilution MIC; type: cell-based; settings: Streptococcus equinus, strain A5169; BHI agar, 20-24 hours
Method in brief: as §1

Strep. faecalis = test: antimicrobial spectrum, agar dilution MIC; type: cell-based; settings: Enterococcus faecalis, BHI agar, 20-24 hours
Method in brief: as §1

Strep. faecium = test: antimicrobial spectrum, agar dilution MIC; type: cell-based; settings: Enterococcus faecium, ATCC8043, strain ATCC 8043; BHI agar, 20-24 hours
Method in brief: as §1

Strep. pneumoniae = test: antimicrobial spectrum, agar dilution MIC; type: cell-based; settings: Streptococcus pneumoniae
Method in brief: as §1

Strep. pyogenes = test: antimicrobial spectrum, agar dilution MIC; type: cell-based; settings: Streptococcus pyogenes, BHI agar, 20-24 hours
Method in brief: as §1

E. coli = test: antimicrobial spectrum, agar dilution MIC; type: cell-based; settings: Escherichia coli, BHI agar, 20-24 hours
Micrococcus luteus = test: antimicrobial spectrum, agar dilution MIC; type: cell-based; settings: 20-24 hours
Lactobacillus Casei = test: antimicrobial spectrum, agar dilution MIC; type: cell-based; settings: Lacticaseibacillus casei, ATCC7469, strain ATCC 7469; BHI agar, 20-24 hours
Ent. aerogenes = test: antimicrobial spectrum, agar dilution MIC; type: cell-based; settings: Klebsiella aerogenes, ATCC10348, strain ATCC 10348; BHI agar, 20-24 hours
Klebsiella pneumoniae = test: antimicrobial spectrum, agar dilution MIC; type: cell-based; settings: strain 8045, BHI agar, 20-24 hours
Pseudomonas cepacia = test: antimicrobial spectrum, agar dilution MIC; type: cell-based; settings: Burkholderia cepacia, strain 2961; BHI agar, 20-24 hours; read-out: MIC
Procedure: Erythromycin A was used for this purpose.
After incubation, each disk is read.

Acinetobacter SP = test: antimicrobial spectrum, agar dilution MIC; type: cell-based; settings: strain CMX 669, BHI agar, 20-24 hours
Staph. saprophyticus = test: microbe, parasite or virus in culture; settings: Staphylococcus saprophyticus, ATCC15305
Procedure: Twelve petri dishes containing successive aqueous dilutions of the test compound mixed with 10 ml of sterilized Brain Heart Infusion agar (Difco 0418-01-5) are prepared. Each plate is inoculated with 1:100 (or 1:10 for slow-growing strains, primarily Micrococcus and Streptococcus) dilutions of up to 32 different microorganisms, using a Steers replicator block. The inoculated plates are incubated at 35°-37° C. for 20-24 hours. In addition, a control plate, using BHI agar containing no test compound, is prepared and incubated at the beginning and end of each test.
An additional plate containing a compound having known susceptibility patterns for the organisms being tested and belonging to the same antibiotic class as the test compound is also prepared and incubated as a further control, as well as to provide test-to-test comparability.
After incubation, each disk is read. The MIC is defined as the lowest concentration of drug yielding no growth, a slight haze, or sparsely isolated colonies on the inoculum spot as compared to the growth control.

[1] = system: gut contractions (stomach, duodenum, jejunum); settings: dog, in vivo, iv, 4 mg/kg
Procedure: Compounds of this invention have been tested for gastrointestinal stimulating activity in a dog model at 4 mg/kg intravenously. Contractions in the gut were recorded with surgically implanted strain gauges. […] Ratios were calculated for the stomach, duodenum and jejunum, and a final arithmetic mean index was calculated and reported in Table 1.

Staph. aureus NCTC 10649 = test: acute mouse protection test; settings: for ED50: Staphylococcus aureus, NCTC10649, in Mus musculus, 168 h, dosed 1 and 5 hours post-infection, observed 7 days; for # Died: ten mice
Procedure: The acute mouse protection test is conducted on ten mice with each of three levels of drug.
The acute mouse protection test is conducted on female, Swiss albino mice, 18-20 grams in weight. The mice are injected intraperitoneally with an 18-hour culture of the indicated test organism diluted sufficiently to provide the desired LD50 value. To check the potency of the inoculum, a titration of the indicated test organism is carried out in control animals. […] The ED50 values are calculated using the mortality data collected.

**Q.** Which results are given for CC[C@H]1OC(=O)[C@H](C)[C@@H](O[C@H]2C[C@@](C)(OC)[C@@H](O)[C@H](C)O2)[C@H](C)[C@@H](O[C@@H]2O[C@H](C)C[C@H](N(C)C)[C@H]2O)[C@](C)(OC)C[C@@H](C)C(=O)[C@H](C)[C@H]2NC(=O)O[C@@]21C [Example 2, 11-deoxy-6-O-methyl erythromycin A 11,12 cyclic carbamate]?
**A.** MIC (Providencia stuartii): > 100 µg/mL; MIC (Pseudomonas aeruginosa; strain 5007): 100 µg/mL (≈ 129 µM); MIC (Pseudomonas aeruginosa; strain BMH10): 50 µg/mL (≈ 64.7 µM); MIC (Pseudomonas aeruginosa; strain K799/61): 1.56 µg/mL (≈ 2.02 µM); MIC (Pseudomonas aeruginosa; strain K799/WT): 50 µg/mL (≈ 64.7 µM); MIC (Staph. aureus; ATCC6538P, strain ATCC 6538P): 0.1 µg/mL (≈ 0.129 µM); MIC (Staph. aureus; ATCC25923, strain ATCC 25923): 0.015 µg/mL (≈ 0.0194 µM); MIC (Staph. aureus; NCTC10649, strain NCTC 10649, read-out: MIC): 0.06 µg/mL (≈ 0.0776 µM); MIC (Staph. aureus; strain 45): 0.1 µg/mL (≈ 0.129 µM); MIC (Staph. aureus; strain 45 RAR 2): 0.2 µg/mL (≈ 0.259 µM); MIC (Staph. aureus; strain 642A): 0.03 µg/mL (≈ 0.0388 µM); MIC (Staph. aureus; strain A5177): 0.39 µg/mL (≈ 0.505 µM); MIC (Staph. aureus; strain A-5278): > 128 µg/mL; MIC (Staph. aureus; strain CMX 686B): 0.1 µg/mL (≈ 0.129 µM); MIC (Staph. aureus; strain CMX 705): 0.015 µg/mL (≈ 0.0194 µM); MIC (Staph. aureus; strain CMX 730A): 0.015 µg/mL (≈ 0.0194 µM); MIC (Staph. aureus; strain CMX 739A): 0.015 µg/mL (≈ 0.0194 µM); MIC (Staph. aureus; strain GYR 1150): 0.03 µg/mL (≈ 0.0388 µM); MIC (Staph. aureus; strain GYR 1162): 0.03 µg/mL (≈ 0.0388 µM); MIC (Staph. epidermidis; strain 3519): 0.05 µg/mL (≈ 0.0647 µM); MIC (Staph. epidermidis; strain 3519 RARI): 0.05 µg/mL (≈ 0.0647 µM); MIC (Staph. epidermidis; strain CMX 724G): > 128 µg/mL; MIC (Staph. epidermidis; strain CMX 728): 0.03 µg/mL (≈ 0.0388 µM); MIC (Staph. epidermidis; strain CMX 729h): > 128 µg/mL; MIC (Staph. epidermidis; strain GYR 1151): 0.03 µg/mL (≈ 0.0388 µM); MIC (Strep. agalactiae; strain CMX 508): 0.01 µg/mL (≈ 0.0129 µM); MIC (Strep. agalactiae; strain CMX 633): 0.015 µg/mL (≈ 0.0194 µM); MIC (Strep. bovis): 0.02 µg/mL (≈ 0.0259 µM); MIC (Strep. faecalis; strain A-5168): > 128 µg/mL; MIC (Strep. faecalis; strain CMX 663F): 0.5 µg/mL (≈ 0.647 µM); MIC (Strep. faecalis; strain CMX 729G, read-out: MIC): 0.12 µg/mL (≈ 0.155 µM); MIC (Strep. faecalis; strain CMX 736F, read-out: MIC): 0.06 µg/mL (≈ 0.0776 µM); MIC (Strep. faecalis; strain GYR 1164, read-out: MIC): 0.12 µg/mL (≈ 0.155 µM); MIC (Strep. faecalis; strain GYR 1166, read-out: MIC): 0.06 µg/mL (≈ 0.0776 µM); MIC (Strep. faecalis; strain GYR 1167, read-out: MIC): 0.12 µg/mL (≈ 0.155 µM); MIC (Strep. faecium): 0.05 µg/mL (≈ 0.0647 µM); MIC (Strep. pneumoniae): 16 µg/mL (≈ 20.7 µM); MIC (Strep. pneumoniae; strain CMX 635, BHI agar, 20-24 hours): 0.004 µg/mL (≈ 0.00517 µM); MIC (Strep. pneumoniae; strain CMX 698, BHI agar, 20-24 hours): 0.004 µg/mL (≈ 0.00517 µM); MIC (Strep. pyogenes; strain 930): > 100 µg/mL; MIC (Strep. pyogenes; strain C203): 0.004 µg/mL (≈ 0.00517 µM); MIC (Strep. pyogenes; strain EES61): 0.05 µg/mL (≈ 0.0647 µM); MIC (Strep. pyogenes; strain M79061-98, read-out: MIC): 0.25 µg/mL (≈ 0.323 µM); MIC (Strep. pyogenes; strain M79061-139): 0.004 µg/mL (≈ 0.00517 µM); MIC (Strep. pyogenes; strain M79061-140): 0.004 µg/mL (≈ 0.00517 µM); MIC (E. coli; strain DC-2): 50 µg/mL (≈ 64.7 µM); MIC (E. coli; strain H560): 3.1 µg/mL (≈ 4.01 µM); MIC (E. coli; strain JUHL): 50 µg/mL (≈ 64.7 µM); MIC (E. coli; strain KNK 437): 25 µg/mL (≈ 32.3 µM); MIC (E. coli; strain SS): 0.39 µg/mL (≈ 0.505 µM); MIC (Micrococcus luteus; strain 4698, BHI agar): 0.39 µg/mL (≈ 0.505 µM); MIC (Micrococcus luteus; strain 9341, BHI agar): 0.05 µg/mL (≈ 0.0647 µM); MIC (Lactobacillus Casei): 0.05 µg/mL (≈ 0.0647 µM); MIC (Ent. aerogenes): 100 µg/mL (≈ 129 µM); MIC (Klebsiella pneumoniae): 50 µg/mL (≈ 64.7 µM); MIC (Pseudomonas cepacia): 25 µg/mL (≈ 32.3 µM); MIC (Acinetobacter SP): 6.2 µg/mL (≈ 8.02 µM); MIC (Staph. saprophyticus): 0.03 µg/mL (≈ 0.0388 µM); Gastrointestinal Motility Index [1]: 1.18; ED50 (Staph. aureus NCTC 10649; po, dosage medium Carboxymethylcellulose): 45.2 mg/kg; ED50 (Staph. aureus NCTC 10649; po, dosage medium PBS): 34.4 mg/kg; ED50 (Staph. aureus NCTC 10649; sc, subcutaneous, dosage medium Injectable solution): 5 mg/kg; # Died (Staph. aureus NCTC 10649; oral, Carboxymethylcellulose, 9.4 mg/kg): 10; # Died (Staph. aureus NCTC 10649; oral, Carboxymethylcellulose, 62.5 mg/kg): 7; # Died (Staph. aureus NCTC 10649; oral, Carboxymethylcellulose, 150.0 mg/kg): 0; # Died (Staph. aureus NCTC 10649; oral, PBS, 9.4 mg/kg): 10; # Died (Staph. aureus NCTC 10649; oral, PBS, 62.5 mg/kg): 7; # Died (Staph. aureus NCTC 10649; oral, PBS, 150.0 mg/kg): 0; # Died (Staph. aureus NCTC 10649; subcutaneous, Injectable solution, 2.5 mg/kg): 9; # Died (Staph. aureus NCTC 10649; subcutaneous, Injectable solution, 10.0 mg/kg): 1; # Died (Staph. aureus NCTC 10649; subcutaneous, Injectable solution, 40.0 mg/kg): 0
